Measured values: patent US8309612B2, “Method for treating age-related macular degeneration” (Santen Pharmaceutical Co., Ltd., priority 2007, dated 2012)

Assays:
[1] = test system: carotid artery remodeling and neovascularization; conditions: p22phox transgenic mice; cited from earlier work
[2] = test system: choroidal neovascularization; test: Rat model of krypton laser-induced choroidal neovascularization; type: in vivo; conditions: for Inhibition rate (%): BID, oral, 12 days, choroidal neovascularization incidence on day 7 after photocoagulation vs vehicle
Procedure: The usefulness of Ebselen was evaluated using a rat model of laser-induced choroidal neovascularization.
A rat was given general anesthesia by intramuscular administration of 1 ml/kg of a mixed solution of a 5% (w/v) ketamine hydrochloride injection solution and a 2% xylazine hydrochloride injection solution (7:1), and a 0.5% (w/v) tropicamide-0.5% phenylephrine hydrochloride ophthalmic solution was instilled into the eyes to cause mydriasis, and then, photocoagulation was performed with a krypton laser photocoagulation apparatus. The photocoagulation was performed in a posterior fundus at eight spots per eye sparsely by focusing on the retinal deep layer avoiding thick retinal blood vessels (coagulation conditions: spot size: 100 μm, output: 100 mW, coagulation time: 0.1 sec). After the photocoagulation, the ocular fundus was photographed, and the site where the laser was irradiated was confirmed. […]
On day 7 after photocoagulation, each rat was given general anesthesia by intramuscular administration of 1 ml/kg of a mixed solution of a 5% (w/v) ketamine hydrochloride injection solution and a 2% xylazine hydrochloride injection solution (7:1), and a 0.5% (w/v) tropicamide-0.5% phenylephrine hydrochloride ophthalmic solution was instilled into the eyes to cause mydriasis, and then, 0.1 ml of a 10% fluorescein solution was injected into the tail vein, and fluorescence fundus photography was performed. In the fluorescence fundus photography, a spot where fluorescence leakage was not observed (absence of neovascularization) was judged as negative, and a spot where fluorescence leakage was observed was judged as positive. When there are two photocoagulation sites where a little fluorescence leakage was observed, they were judged as positive (presence of neovascularization). The choroidal neovascularization incidence rate (%) was calculated from the number of positive spots relative to the eight laser irradiation spots in accordance with Equation 1, and the inhibition rate (%) of the drug to be evaluated was calculated in accordance with Equation 2. […]

ARPE-19 cells = test: Protective effect on HNE-induced cell damage in ARPE-19 cells; type: cell-based, human; conditions: for Cell protective effect on HNE-induced cell damage (in words): 12.5 μM, HNE 100 μM
Text: It is known that reactive oxygen species promote membrane lipid peroxidation, resulting in production of HNE (Exp. Eye. Res., 2006; 83: 165-175). HNE forms a covalent bond with a cysteine, lysine or histidine side chain of a protein and inhibits the normal function of the protein, and therefore has a high cytotoxic activity (Invest. Opthalmol. Vis. Sci. 2007; 48: 3469-3479). It is reported that an HNE-modified protein is present also in drusen beneath the retina which is considered to be a deposit inducing AMD, and it is considered to cause retinal pigment epithelial cell damage and also considered to be one of the causes of development or progression of a disease attributed to retinal pigment epithelial damage (Mol. Vis., 2005; 11: 1122-1134, Invest. Opthalmol. Vis. Sci., 2003; 44: 3663-3668, FEBS Lett., 2002; 528: 217-221). Therefore, by using ARPE-19 cells, the protective effect of Ebselen on HNE-induced cell damage was evaluated. In addition, the effects of quercetin and edaravone which are compounds generally known to have an antioxidative activity were also evaluated at the same time, and comparison study was performed.
(§1) ARPE-19 cells were seeded in a 96-well plate at 5×10^3 cells/well and cultured for 24 hours under the conditions of 37° C. in a 5% CO2/95% air atmosphere. As a culture medium for ARPE-19, DMEM/F12 containing 10% fetal bovine serum, 2 mM L-glutamine and 100 U/mL penicillin and 100 μg/mL streptomycin was used. Subsequently, the culture medium was removed and exchanged with a culture medium containing Ebselen, quercetin or edaravone, or a vehicle culture medium. Incidentally, each compound was dissolved in DMSO and diluted to 1000-fold with the culture medium to prepare a culture medium containing each compound at 12.5 μM. The vehicle culture medium was prepared by diluting DMSO without containing the compound to 1000-fold with the culture medium. After the cells were cultured for 24 hours under the conditions of 37° C. in a 5% CO2/95% air atmosphere, the culture medium was removed and exchanged with a culture medium containing HNE (100 μM). After the cells were further cultured for 24 hours under the above-mentioned conditions, the cell viability was measured. In the measurement, Cell Counting Kit-8 (Dojin Kagaku) was used.
(§2) The mean±the standard error (%) of the cell viability of each compound-treated group was expressed by taking the mean value of the cell viability of the untreated cells as 100%. The case number in each group is 4.

[3] = test system: ARPE-19 cells (a human retinal pigment epithelial cell line); test: Protective effect on hydrogen peroxide-induced cell damage in ARPE-19 cells; type: cell-based; conditions: for Cell protective effect on hydrogen peroxide-induced cell damage (in words): 6.25 μM or 12.5 μM, hydrogen peroxide 250 μM
Procedure: Oxidative stress causes retinal pigment epithelial dysfunction and is considered to be one of the causes of development or progression of AMD (Proc. Natl. Acad. Sci. USA, 2006; 103: 11282-11287). Therefore, by using ARPE-19 cells (a human retinal pigment epithelial cell line), the protective effect of Ebselen on hydrogen peroxide-induced cell damage was evaluated. In addition, the effects of quercetin and edaravone which are compounds generally known to have an antioxidative activity were also evaluated at the same time, and comparison study was performed.
as §1, with “compound at 6.25 μM or 12.5 μM.” for “compound at 12.5 μM.”, “medium containing hydrogen peroxide (250 μM). After” for “medium containing HNE (100 μM). After”
as §2

[4] = test system: ischemia-induced neovascularization in hindlimb tissues; conditions: hindlimb tissues of mice; cited from earlier work
renal neovascularization = conditions: ZDF rats, repeated administration; cited from earlier work

O=c1c2ccccc2[se]n1-c1ccccc1 [Ebselen, 2-phenyl-1,2-benzisoselenazol-3(2H)-one]
Effect on carotid artery remodeling and neovascularization (in words) [1]: inhibited endogenous hydrogen peroxide-induced carotid artery remodeling and neovascularization
Inhibition rate (%) ([2]; each dose: 5 mg/kg): 26.9%
Inhibition rate (%) ([2]; each dose: 15 mg/kg): 28.9%
Effect on choroidal neovascularization (in words) ([2]; rat models of laser-induced choroidal neovascularization, 5 or 15 mg/kg BID oral): inhibits choroidal neovascularization
Cell protective effect on HNE-induced cell damage (in words) (ARPE-19 cells): strongly protected the cells against HNE-induced cell damage
Cell protective effect on hydrogen peroxide-induced cell damage (in words) [3]: strongly protected the cells against hydrogen peroxide-induced cell damage in a concentration-dependent manner
Effect on ischemia-induced neovascularization (in words) [4]: inhibited ischemia-induced neovascularization
Effect on renal neovascularization (in words) (renal neovascularization): renal neovascularization was restored

CC1=NN(c2ccccc2)C(=O)C1 [Edaravone, edaravone]
Cell protective effect on HNE-induced cell damage (in words) (ARPE-19 cells): not found to have a cell protective effect
Cell protective effect on hydrogen peroxide-induced cell damage (in words) [3]: not found to have a cell protective effect at either concentration

O=c1c(O)c(-c2ccc(O)c(O)c2)oc2cc(O)cc(O)c12 [Quercetin, quercetin]
Cell protective effect on HNE-induced cell damage (in words) (ARPE-19 cells): not found to have a cell protective effect
viability at 12.5 µM (ARPE-19 cells; Homo sapiens, ARPE-19, compound 12.5 μM, 24 h pretreatment, then HNE 100 μM 24 h, untreated cells = 100%, mean ± standard error): 28.6 ± 0.9%
Cell protective effect on hydrogen peroxide-induced cell damage (in words) [3]: not found to have a cell protective effect at either concentration
viability at 6.25 µM ([3]; Homo sapiens, ARPE-19, compound 6.25 μM, 24 h pretreatment, then hydrogen peroxide 250 μM 24 h, untreated cells = 100%, mean ± standard error): 8 ± 0.1%
viability at 12.5 µM ([3]; Homo sapiens, ARPE-19, compound 12.5 μM, 24 h pretreatment, then hydrogen peroxide 250 μM 24 h, untreated cells = 100%, mean ± standard error): 3.8 ± 0.4%
